From US9957539B2, “Method for using hexenol glycosyl transferase” (SUNTORY HOLDINGS LIMITED, priority 2013, dated 2018)

What was measured:
CsUGTC30 = assay: Specificity of CsUGTC30 for sugar acceptors (relative activity of transglucosylation); format: biochemical, Camellia sinensis; conditions: UDP-glucose as donor; 30 minutes at 30° C.; activity on geraniol is set to 100% (FIG. 8)
Description: Standard enzyme reaction conditions are as follows.
Next, to clarify the substrate specificity of CsUGTC30, geraniol, linalool, eugenol, benzyl alcohol, 2-phenylethanol, quercetin and cyanidin were each used as a substrate to determine the relative activity of transglucosylation with the above enzyme and under the above enzyme reaction conditions.

[1] = Hexenol glycosylation activity of recombinant UGT enzymes (enzyme reaction with UDP-glucose, LC-MS analysis of product); format: biochemical; conditions: 2 mM UDP-glucose, […] sugar acceptor substrate, pH 7.5, 30° C. for 1 hour; product detected by LC-MS against reference standard
Procedure: Standard enzyme reaction conditions are as follows. […] The enzyme reaction solution (5 μl) was analyzed by LC-MS under the following conditions. LC Conditions • Column: CAPCELL PAK C18-UG120 (2.0 mm I.D.×150 mm) • Mobile phase: A: […] (m/z 261, 297, 307) Since green leaf volatiles are found in a wide range of land plants, a search was conducted for UGTs causing glycosylation of green leaf volatiles derived from other plant lines on the basis of homology with the sequence of Camellia sinensis Cs_UGT_C30.

| glycosylation activity on cis-3-hexenol (generation of cis-3-hexenyl monoglucoside) [1] | Molecule | relative transglucosylation activity of CsUGTC30 on the substrate (sugar acceptor) (CsUGTC30) |
| --- | --- | --- |
|  | OCCc1ccccc1 [2-phenylethanol] | transglycosylation activity |
|  | OCc1ccccc1 [benzyl alcohol] | second highest activity |
|  | C=CCc1ccc(O)c(OC)c1 [eugenol] | second highest activity |
|  | CC(C)=CCC/C(C)=C/CO [geraniol] | highest activity |
|  | CC/C=C\CCO [hexenol, cis-3-hexen-1-ol] | at the same level |
|  | C=CC(C)(O)CCC=C(C)C (stereo not drawn) [linalool] | transglycosylation activity |
|  | O=c1c(O)c(-c2ccc(O)c(O)c2)oc2cc(O)cc(O)c12 [quercetin] | no transglycosylation activity |
| glycosylation activity on cis-3-hexenol | Cs_UGT_C30: Camellia sinensis glycosyltransferase, amino acid sequence SEQ ID NO: 2, expressed His-tagged in E. coli (protein, listed as Camellia sinensis, His tag) MGSRKQPHAVCVPFPAQGHINPMMQLAKLLHSRGFYITFVNTEFNHRRLLQSKGPEFLKGCADFQFESIPDGLPPSDRDATQDPPTLCIAMRDNCLDPFRVLLKKLNNNNNSIASRQVPGVTCVVSDGAMNFAMKAAEEAGIPEVQFWTASACGFMGYLHYPQLVQRGIFPFKDESFQSDGSLDTTIDWIPGMRNIRLKDMPSFIRTTDPNDILFNYLSEEVQNCLKASAIIFNTFDTLEHQVLQAIASKFHNIYTIGPLSLLSKQVIDGEFKSLNSSLWKEDTKCLQWLDTKEPNSVVYVNYGSITVMTDQHLKEFAWGLANSKHPFLWIVRPDIVMGDSAILPEHFVEETKDRGLLVSWCPQEQVLSHPSIGVFLTHCGWNSTLESICGGVPIICWPFFAEQQTNCRYACTEWGIGMEVNHDVKRNEIVALINEMLEGDKGKQMRKKALKLKKEAEEATDVGGLSYNNFDRLIKEALHYCEQY |  |
| glycosylation activity on cis-3-hexenol | Cs_UGT85like_C1: Camellia sinensis glycosyltransferase, amino acid sequence SEQ ID NO: 4, expressed His-tagged in E. coli (protein, listed as Camellia sinensis, His tag) MAKLHFFFFPVMAQGHMIPTLDMAKLFASHGVKATIITTPLNAPYFTRSIQRTHHSISVLTLKFPAVEAGLVEGCESVDQIPSPDMLPNFLKATTMLQDPLERLLQDSRPDCLVADMFFPWATHVAAKFNIPRLVFHGTGFFTLCASENLRLYMPQASVSSDDEPFLVPNLPHKIMLTRSQLPENERCDTETGLSTMLKQVKETELTSYGVIVNSFYELEPDYADYYRNVLGRRAWHIGPVSLCNREVEDKAQRGKESAIDEVECLKWLNSKKPNSVIYVCFGSLGDFTASQLFELAMGLEASGQQFIWVVRKGKIEEDGDEKRLPEEFEERMKDKGLIIRGWAPQVLILDHESIGGFVTHCGWNSILEGVCAGVPMVTWPRFAEQFYNEKLVTEVLRIGVGVGARQWQIGAGSDCIKGETIAKAVKRVMEAGEEAEGMRTRARAAKDMAKKAVEEGGSSYSDLNALIQEMSS |  |
